System: YAP-TEAD
Experiment: TEAD inhibition, Hippo Pathway TEAD Reporter MCF-7 luciferase assay
Assay type: cell-based
Conditions: Homo sapiens, MCF7, 24 h, Hippo Pathway TEAD Reporter MCF-7 cells, luciferase activity after 24 h; read-out: IC50 of the test compounds on YAP-TEAD inhibition (Group)
In short: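 IC50 derived from ONE-Glo luciferase luminescence after 24 h compound exposure (11 concentrations in quadruplicate, 0.1% DMSO control). Reporter: MCF-7 line expressing firefly luciferase under TEAD elements, constitutively activated by nuclear YAP1.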

| SMILES | IC50 [nM] |
| --- | --- |
| COc1ccc(Oc2ccc(C(F)(F)F)c(F)n2)cc1NC(=O)C1CCC(=O)N1C (stereo not drawn) [Compound 400, N-(5-((6-Fluoro-5-(trifluoromethyl)pyridin-2-yl)oxy)-2-methoxyphenyl)-1-methyl-5-oxopyrrolidine-2-carboxamide] | < 50 |
| COc1ccc(Oc2ccc(C(F)(F)F)c(F)n2)cc1NC(=O)[C@@H]1CCC(=O)N1C [Compound 401, (S)—N-(5-((6-Fluoro-5-(trifluoromethyl)pyridin-2-yl)oxy)-2-methoxyphenyl)-1-methyl-5-oxopyrrolidine-2-carboxamide] | < 50 |
| COc1ccc(Oc2ccc(C(F)(F)F)c(F)n2)cc1NC(=O)[C@H]1CCC(=O)N1C [Compound 402, (R)—N-(5-((6-Fluoro-5-(trifluoromethyl)pyridin-2-yl)oxy)-2-methoxyphenyl)-1-methyl-5-oxopyrrolidine-2-carboxamide] | < 50 |
| COc1ccc(Oc2ccc(C(F)(F)F)cn2)cc1NC(=O)[C@@H]1CCC(=O)N1C [Compound 403, (S)—N-(2-Methoxy-5-((5-(trifluoromethyl)pyridin-2-yl)oxy)phenyl)-1-methyl-5-oxopyrrolidine-2-carboxamide] | < 50 |
| COc1ccc(/C=C/C2CCC(F)(F)CC2)cc1NC(=O)C1CNC(=O)N1 (stereo not drawn) [Compound 404, (E)-N-(5-(2-(4,4-Difluorocyclohexyl)vinyl)-2-methoxyphenyl)-2-oxo-imidazolidine-4-carboxamide] | 50 to 300 |
| CN1C(=O)CC[C@@H]1C(=O)Nc1cc(/C=C/C2CCC(F)(F)CC2)cc2c1OCC2 [Compound 405, (R,E)-N-(5-(2-(4,4-Difluorocyclohexyl)vinyl)-2,3-dihydrobenzofuran-7-yl)-1-methyl-5-oxopyrrolidine-2-carboxamide] | < 50 |
| CN1C(=O)CC[C@H]1C(=O)Nc1cc(/C=C/C2CCC(F)(F)CC2)cc2c1OCC2 [Compound 406, (S,E)-N-(5-(2-(4,4-Difluorocyclohexyl)vinyl)-2,3-dihydrobenzofuran-7-yl)-1-methyl-5-oxopyrrolidine-2-carboxamide] | < 50 |
| CN1C(=O)NC[C@H]1C(=O)Nc1cc(/C=C/C2CCC(F)(F)CC2)cc2c1OCC2 [Compound 407, (S,E)-N-(5-(2-(4,4-Difluorocyclohexyl)vinyl)-2,3-dihydrobenzofuran-7-yl)-3-methyl-2-oxoimidazolidine-4-carboxamide] | < 50 |
| COc1ccc(/C=C/C2CCC(F)(F)CC2)cc1NC(=O)C1CN(C)C(=O)N1C (stereo not drawn) [Compound 408, (E)-N-(5-(2-(4,4-Difluorocyclohexyl)vinyl)-2-methoxyphenyl)-1,3-dimethyl-2-oxoimidazolidine-4-carboxamide] | 50 to 300 |
| CN1C(=O)NC[C@H]1C(=O)Nc1cc(/C=C/C2CCC(F)(F)CC2)cc2c1OCO2 [Compound 409] | < 50 |
| COc1cc(Oc2ccc(O)c(NC(=O)C3CCC(=O)N3C)c2)ccc1C(F)(F)F (stereo not drawn) [Compound 410, N-(2-Hydroxy-5-(3-methoxy-4-(trifluoromethyl)phenoxy)phenyl)-1-methyl-5-oxopyrrolidine-2-carboxamide] | 301 to 2000 |
| COc1ccc(Oc2ccc(C(F)(F)F)cc2O)cc1NC(=O)C1CCC(=O)N1C (stereo not drawn) [Compound 411, N-(5-(2-Hydroxy-4-(trifluoromethyl)phenoxy)-2-methoxyphenyl)-1-methyl-5-oxopyrrolidine-2-carboxamide] | 301 to 2000 |
| COc1ccc(Oc2ccc(C(F)(F)F)cc2)cc1NC(=O)C1CCN(C(C)=O)C1 (stereo not drawn) [Compound 412, 1-Acetyl-N-(2-methoxy-5-(4-(trifluoromethyl)phenoxy)phenyl)-pyrrolidine-3-carboxamide] | 301 to 2000 |
| COc1ccc(Oc2cccc(F)c2)cc1NC(=O)C1CCN(C(C)=O)C1 (stereo not drawn) [Compound 413, 1-Acetyl-N-(5-(3-fluorophenoxy)-2-methoxyphenyl)pyrrolidine-3-carboxamide] | 301 to 2000 |
| COc1ccc(Oc2ccc(C(F)(F)F)cc2)cc1N(C)C(=O)[C@@H]1CCC(=O)N1C [Compound 417, (S)—N-(2-Methoxy-5-(4-(trifluoromethyl)phenoxy)phenyl)-N,1-dimethyl-5-oxopyrrolidine-2-carboxamide] | 50 to 300 |
